Test results as given in ChEMBL document CHEMBL1799952, “Synthesis of novel heme-interacting acridone derivatives to prevent free heme-mediated protein oxidation and degradation” (Bioorg Med Chem Lett, 2011).
The source made the active and inactive calls. The calls are words filed in the database; no cut-off is given here.

Legend:
Heme [1] = assay: Binding affinity to heme assessed as equilibrium binding constant by UV-visible spectrophotometry
Heme [2] = assay: Inhibition of heme-mediated bovine serum albumin oxidation assessed as protein carbonyl formation after 1 hr in presence of H2O2 at pH 7.4
Heme [3] = assay: Inhibition of heme-mediated bovine serum albumin degradation at 100 uM after 1 hr by gel electrophoresis in presence of H2O2 at pH 7.4

Structure (SMILES) | Ka (Heme [1]) | IC50 (Heme [2]) | inhibition (Heme [3])
O=c1c2ccccc2[nH]c2ccccc12 [ACRIDONE] | 2.4 ×10⁴ /M | 55 µM | –
COc1ccc2[nH]c3ccccc3c(=O)c2c1 | 2.7 ×10⁴ /M | 44 µM | –
O=c1c2ccccc2[nH]c2cc([N+](=O)[O-])ccc12 | 4.3 ×10⁴ /M | 41 µM | Active
COc1cc2c(c(O)c1OC)c(=O)c1ccccc1n2C [ARBORININE] | 3.9 ×10⁴ /M | 42 µM | Active
O=c1c2ccccc2[nH]c2cc(Cl)ccc12 | 4.6 ×10⁴ /M | 36 µM | Active
O=C(O)c1cccc2c(=O)c3ccccc3[nH]c12 | 3.8 ×10⁴ /M | 43 µM | –
